# Assay results taken from patent US6447801B1, “Anti-parasitic action of N,N-diethyl-m-toluamide (deet) and formulations that prolong its activity in the skin” (priority 1997, dated 2002).
# Tests used:
# [1] = test system: cercariae of S. mansoni; assay: Effect of DEET applied to the skin after exposure to S. mansoni infection in mice; format: in vivo, Schistosoma mansoni
# Description: For in vivo animal experiments, male mice of the CD1 strain, weighing approximately 18-20 grams, purchased from Charles River Laboratories (Wilmington, Mass.) were used. The use of animals in these experiments were in compliance with the Animal Welfare Act and other Federal statues and regulations relating to animals as stated in the National Institute of Health publication: Guide for the Care and Use of Laboratory Animals. Mice were infected individually with schistosome cercariae via either tail skin or via shaved abdominal skin. For infection via tail skin, the mouse was restrained in a cage and the tail was dipped for 60 minutes in a tube containing 250-300 ^35S-labeled cercariae suspended in 10 ml of distilled water at room temperature. […]
# To determine skin penetration and worm establishment, whole tail skin or the area of abdominal skin that was exposed to the cercariae as described above and the lungs were removed from each mouse on day seven after infection and processed for compressed organ autoradiography techniques as described previously (Li J W et al., Parasitology International 46: 55-65 (1997)). […] Following autoradiographic development, the dark spots (which represent reduced silver foci on film) were counted and percent worm establishment was calculated (number of spots/total number of cercariae used for infection X 100). […]
# [2] = test system: Dermacetor variabilis; assay: Tick attachment to rabbit ear, Dermacetor variabilis; format: in vivo
# Experimental: To determine the effect of DEET on tick attachment and feeding we used two species of ticks Amblyoma americanum and Dermacetor variabilis purchased from University of Oklahoma. Ticks were allowed to feed on the ears of male New Zealand white rabbits purchased from Charles River. For feeding, five ticks were introduced into a 60 μm sieve cell well (Fisher Scientific) which was attached to the ear of the rabbit with nail glue. Ticks were observed every 30 minutes for the first eight hours to assess skin attachment and feeding behavior. Tick attachment was defined as the minimum time required for 3 of the 5 ticks to attach to the ear. […] The observation was continued for 72 hours for both species of ticks. Separate rabbits were used for each species and for each treatment. […] All the ticks in this study were active until attachment.
# In this series of experiments, the protective effect(s) of different concentrations of DEET and Lipodeet on the attachment of nymphs and adults of two species of ticks, A. americanum and D. variabilis, to the rabbit ear was evaluated. Experiments were set up wherein different concentrations (20% or 40% of DEET or Lipodeet were applied (0.2 ml of the samples to 10 cm^2 surface area), onto the dorsal side of the ear lobes of a rabbit. After allowing the preparation to dry for 30 min., sieve cups (Fisher Scientific, 1″ inner diameter) were then attached to the ear lobes using nail glue. Ten nymphs or five adult ticks were then introduced into the sieve cups every 24 hrs through a small slit made on the sieve membrane. Attachment of ticks to the skin was monitored every 24 hrs. for up to 72 hrs. after introduction of the ticks.
# More than 60% of ticks used in our experiments were dead after contact with Lipodeet. Although a well-aerated sieve cup was used (1″ inner diameter), we initially thought that the tick mortality may be due to possible DEET vapor trapped within the sieve cup. Therefore, we designed experiments where one half of the surface area of skin within the sieve cup was treated with 40% Lipodeet and the other half was left untreated. Five adults ticks of A. americanum were then introduced into the sieve cups every 24 hrs. After 72 hrs., the sieve cups were removed.
# [3] = Absorption through skin: DEET level in plasma by HPLC; format: in vivo, mice; conditions: 200 μl of 60% on abdominal skin
# Experimental: Briefly, the Bond-Elute cartridges were activated by washing with two ml of HPLC grade acetonitrile (Sigma chemicals Co., St. Louis, Mo.) followed by two ml of deionized, degassed filtered water. A low vacuum (<0.5 in Hg) was applied for the wash using a Vac-Elute manifold (Varian Analytical Supplies Co.). […] Hg). The cartridge was then washed with three mls. of acetonitrile-ammoniumacetate (pH 4.5, 0.03 M, at 40:60 V:V) under low vacuum (<0.5 in. Hg). The eluant was then injected directly onto columns (ODS-1, 250×4.6 mm, Alltech Co., Deerfield, Ill.) for HPLC analysis (Waters, Division of Millipore, Milford, Mass.). Chromatographic conditions used for HPLC analysis is as follows: Mobil phase: acetonitrile-ammoniumacetate (pH 4.5, 0.03M, at 36:64 v:v), flow rate 1.0 ml/min, UV detection at 220 nm. Sensitivity was set at 0.01AUFS. […].
# [4] = Disposition of 14C-DEET and 14C-Lipodeet after skin application (skin, blood, urine, bedding radioactivity)
# Experimental: In this series of experiments, 11.472 mg of ^14C-DEET of ^14C-Lipodeet (in 100 μl) was applied to 5 cm^2 area of the mice abdominal skin. At different time points (15 min, 30 min, 60 min, 2 hrs., 4 hrs., 24 hrs., 48 hrs. and 72 hrs.) after application, the whole area of skin where the lipodeet had been applied was collected, underlying tissue removed and the radioactivity measured in a Beckman β-counter. Samples of blood and urine were also collected at these time points from each mouse to measure the radioactivity (n=10 for each time point). […] In this study, we made observations only up to 72 hrs. […] There are two possibilities, (1) substantial quantities of both DEET and Lipodeet are absorbed systemically through the skin within 24 hrs., or (2) both the chemicals are lost in the bedding due to direct contact of the applied area to the bedding materials. The first hypothesis was tested by measuring ^14C levels in the blood and urine in these animals.
smiles,measurement,setting,value
"CCN(CC)C(=O)c1cccc(C)c1 [DEET, N,N-diethyl-m-toluamide]",protection,[1]; 40% DEET applied 4 hrs or more after infection,no protection
same,effectiveness in preventing the infection,[1]; 40% DEET applied within 30 min after exposure to cercariae,100%
same,initial time with no tick attachment,"[2]; 10% DEET on rabbit ear, normal rabbits 4.5 hours",7.0 h
same,time effective in preventing attachment of adult ticks,"[2]; 20%, adults",up to 24 hrs
same,time effective in preventing attachment of nymphs,"[2]; 20%, nymphs",up to 48 hrs
same,"effect of raising concentration, adult ticks","[2]; 40% versus 20%, adults",slightly more effective at 48 hrs
same,"effect of raising concentration, nymphs","[2]; 40% versus 20%, nymphs",no added advantage against nymphs
same,DEET present in the plasma,[3]; 15 min,11.6 mg
same,"DEET present in the plasma, percent",[3]; 15 min,9.7%
same,DEET present in the plasma,[3]; 30 min,5.3 mg
same,"DEET present in the plasma, percent",[3]; 30 min,4.4%
same,DEET present in the plasma,[3]; 60 min,~0.182 mg
same,"DEET present in the plasma, percent",[3]; 60 min,0.15%
same,amount in the superficial layers of the skin,"[4]; 11.472 mg on 5 cm^2, by 24 hrs",nearly all of the DEET applied to the skin has been cleared from the superficial layers
same,lost from the skin,[4]; during 4 to 24 hrs after application,100%
